Activity calls are given as the source filed them. The calls are words filed in the database; no cut-off is given here.
Legend:
[1] = molecular target: T1, Transient receptor potential cation channel subfamily M member 2 (Homo sapiens, UniProt O94759); assay: Inhibition of human TRPM2 expressed in HEK293T cells cotransfected with GFP assessed as reduction in ADPR-induced current at 10 uM by whole cell patch-clamp method relative to control; type: cell-based
[2] = molecular target: T1, Transient receptor potential cation channel subfamily M member 2; assay: Inhibition of human TRPM2 expressed in HEK293T cells cotransfected with GFP assessed as reduction in ADPR-induced current at 30 uM by whole cell patch-clamp method relative to control; type: cell-based
[3] = molecular target: T1, Transient receptor potential cation channel subfamily M member 2; assay: Inhibition of human TRPM2 expressed in HEK293T cells cotransfected with GFP assessed as reduction in ADPR-induced current by whole cell patch-clamp method; type: cell-based
[4] = molecular target: Transient receptor potential cation channel subfamily M member 8 (Rattus norvegicus) (UniProt Q8R455); assay: Inhibition of rat TRPM8 expressed in HEK293T cells cotransfected with GFP assessed as inhibition of […]-induced current at 30 uM by whole cell patch-clamp method relative to control; type: cell-based
[5] = molecular target: Transient receptor potential cation channel subfamily V member 1 (Homo sapiens) (UniProt Q8NER1); assay: Inhibition of TRPV1 (unknown origin) assessed as inhibition of capsaicin-induced current at 30 uM by whole cell patch-clamp method relative to control
SH-SY5Y [6] = assay: Neuroprotection against H202-induced cell death in human SH-SY5Y cells assessed as increase in cell viability at 100 uM after 24 hrs by CCK8 assay; type: functional, cell-based
SH-SY5Y [7] = assay: Neuroprotection against H202-induced cell death in TRPM2 knockdown human SH-SY5Y cells assessed as increase in cell viability at 100 uM after 24 hrs by CCK8 assay; type: functional, cell-based
SH-SY5Y [8] = assay: Cytotoxicity against human SH-SY5Y cells at 30 uM measured after 24 hrs by CCK-8 assay; type: cell-based

T1 sequence (O94759 whole entry): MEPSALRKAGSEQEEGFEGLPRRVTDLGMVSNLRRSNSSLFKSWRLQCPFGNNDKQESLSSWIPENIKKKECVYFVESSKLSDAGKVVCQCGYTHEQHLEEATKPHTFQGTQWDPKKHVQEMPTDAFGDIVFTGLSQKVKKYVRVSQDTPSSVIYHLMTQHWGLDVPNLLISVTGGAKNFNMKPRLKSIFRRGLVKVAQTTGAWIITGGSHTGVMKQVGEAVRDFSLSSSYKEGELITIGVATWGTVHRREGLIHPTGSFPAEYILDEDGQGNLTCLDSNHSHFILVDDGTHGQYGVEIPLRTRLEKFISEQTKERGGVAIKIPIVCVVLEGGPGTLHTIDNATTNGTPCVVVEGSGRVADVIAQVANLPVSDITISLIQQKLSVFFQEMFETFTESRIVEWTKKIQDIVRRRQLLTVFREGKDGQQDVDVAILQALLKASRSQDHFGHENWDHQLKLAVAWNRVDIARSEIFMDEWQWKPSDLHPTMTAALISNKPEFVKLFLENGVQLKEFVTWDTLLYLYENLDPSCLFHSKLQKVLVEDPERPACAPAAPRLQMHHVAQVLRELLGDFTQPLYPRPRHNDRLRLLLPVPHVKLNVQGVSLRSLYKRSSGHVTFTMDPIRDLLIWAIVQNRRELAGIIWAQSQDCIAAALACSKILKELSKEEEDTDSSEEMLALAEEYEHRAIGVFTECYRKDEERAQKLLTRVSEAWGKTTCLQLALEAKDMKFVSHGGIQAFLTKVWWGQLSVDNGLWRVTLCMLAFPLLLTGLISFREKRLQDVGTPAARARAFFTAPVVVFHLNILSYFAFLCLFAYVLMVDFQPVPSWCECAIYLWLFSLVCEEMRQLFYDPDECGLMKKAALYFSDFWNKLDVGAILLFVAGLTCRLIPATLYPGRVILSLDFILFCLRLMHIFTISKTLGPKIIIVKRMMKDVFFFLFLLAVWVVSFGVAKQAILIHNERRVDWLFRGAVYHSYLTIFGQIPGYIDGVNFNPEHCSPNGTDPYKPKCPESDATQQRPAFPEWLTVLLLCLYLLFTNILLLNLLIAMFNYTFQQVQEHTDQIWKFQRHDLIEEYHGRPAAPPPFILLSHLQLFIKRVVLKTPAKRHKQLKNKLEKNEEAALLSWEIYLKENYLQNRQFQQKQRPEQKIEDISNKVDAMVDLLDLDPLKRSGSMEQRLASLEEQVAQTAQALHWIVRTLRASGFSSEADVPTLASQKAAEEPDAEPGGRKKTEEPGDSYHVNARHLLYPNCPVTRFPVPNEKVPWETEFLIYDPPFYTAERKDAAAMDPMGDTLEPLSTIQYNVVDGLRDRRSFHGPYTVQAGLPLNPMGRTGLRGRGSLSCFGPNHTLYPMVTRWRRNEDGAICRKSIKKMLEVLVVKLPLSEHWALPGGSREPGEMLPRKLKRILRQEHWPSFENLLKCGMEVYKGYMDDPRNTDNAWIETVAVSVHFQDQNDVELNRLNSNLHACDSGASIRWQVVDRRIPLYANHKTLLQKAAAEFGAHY
Transient receptor potential cation channel subfamily M member 8 (Rattus norvegicus), sequence (Q8R455 whole entry, looked up): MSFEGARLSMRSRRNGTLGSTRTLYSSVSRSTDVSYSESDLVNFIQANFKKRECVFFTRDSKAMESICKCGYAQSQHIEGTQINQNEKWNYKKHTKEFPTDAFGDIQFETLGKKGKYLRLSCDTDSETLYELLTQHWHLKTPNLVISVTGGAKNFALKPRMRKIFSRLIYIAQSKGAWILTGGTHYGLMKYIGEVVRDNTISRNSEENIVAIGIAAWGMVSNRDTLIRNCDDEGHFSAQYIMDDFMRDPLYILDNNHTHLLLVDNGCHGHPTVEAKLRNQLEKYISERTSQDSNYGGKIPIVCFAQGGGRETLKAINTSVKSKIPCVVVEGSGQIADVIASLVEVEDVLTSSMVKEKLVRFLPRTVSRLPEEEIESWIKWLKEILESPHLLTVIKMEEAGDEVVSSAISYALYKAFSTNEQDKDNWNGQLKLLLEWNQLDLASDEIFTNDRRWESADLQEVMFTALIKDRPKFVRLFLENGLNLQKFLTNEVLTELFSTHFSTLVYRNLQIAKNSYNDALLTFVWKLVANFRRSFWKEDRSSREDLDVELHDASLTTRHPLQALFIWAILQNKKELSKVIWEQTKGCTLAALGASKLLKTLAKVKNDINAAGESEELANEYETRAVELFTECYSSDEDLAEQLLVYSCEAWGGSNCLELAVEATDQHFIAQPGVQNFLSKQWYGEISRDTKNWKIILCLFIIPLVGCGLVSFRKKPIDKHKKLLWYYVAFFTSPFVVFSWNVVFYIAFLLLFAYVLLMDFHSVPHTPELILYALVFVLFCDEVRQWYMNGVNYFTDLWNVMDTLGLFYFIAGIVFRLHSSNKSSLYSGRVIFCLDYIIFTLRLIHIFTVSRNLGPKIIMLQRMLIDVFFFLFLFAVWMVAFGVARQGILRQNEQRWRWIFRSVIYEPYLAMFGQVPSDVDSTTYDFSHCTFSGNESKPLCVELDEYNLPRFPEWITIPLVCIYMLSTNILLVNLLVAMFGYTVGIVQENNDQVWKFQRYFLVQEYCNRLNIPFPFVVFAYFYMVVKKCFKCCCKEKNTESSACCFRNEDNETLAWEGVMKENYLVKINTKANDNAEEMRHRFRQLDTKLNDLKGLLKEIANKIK
Transient receptor potential cation channel subfamily V member 1 (Homo sapiens), sequence (Q8NER1 whole entry): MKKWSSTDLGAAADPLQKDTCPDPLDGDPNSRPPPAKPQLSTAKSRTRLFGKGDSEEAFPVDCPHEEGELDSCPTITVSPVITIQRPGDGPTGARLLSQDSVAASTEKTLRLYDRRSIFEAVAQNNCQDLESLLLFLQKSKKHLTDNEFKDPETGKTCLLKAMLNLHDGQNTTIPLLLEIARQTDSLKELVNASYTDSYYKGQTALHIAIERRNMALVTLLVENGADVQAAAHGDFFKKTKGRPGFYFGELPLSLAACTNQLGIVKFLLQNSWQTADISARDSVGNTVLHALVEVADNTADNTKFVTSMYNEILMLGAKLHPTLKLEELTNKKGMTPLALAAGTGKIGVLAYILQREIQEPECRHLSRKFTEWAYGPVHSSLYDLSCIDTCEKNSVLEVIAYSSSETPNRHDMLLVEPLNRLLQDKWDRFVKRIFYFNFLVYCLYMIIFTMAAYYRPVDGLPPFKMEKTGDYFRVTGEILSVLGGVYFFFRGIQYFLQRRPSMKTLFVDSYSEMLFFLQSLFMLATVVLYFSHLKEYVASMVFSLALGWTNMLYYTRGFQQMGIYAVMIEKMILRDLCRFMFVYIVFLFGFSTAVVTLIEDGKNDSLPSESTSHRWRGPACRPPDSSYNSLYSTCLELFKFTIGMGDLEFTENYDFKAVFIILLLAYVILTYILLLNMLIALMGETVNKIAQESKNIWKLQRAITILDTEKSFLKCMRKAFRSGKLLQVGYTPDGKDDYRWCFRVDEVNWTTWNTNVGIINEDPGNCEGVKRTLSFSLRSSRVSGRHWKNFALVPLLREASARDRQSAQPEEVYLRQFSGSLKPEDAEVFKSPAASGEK

Structure (SMILES)	inhibition [1]	inhibition [2]	IC50 [3]	inhibition [4]	inhibition [5]	Activity (SH-SY5Y [6])	Activity (SH-SY5Y [7])	Activity (SH-SY5Y [8])
CCN(CC)CCn1c2ccccc2n2c(C(C)=O)c(C)nc12	50%							
CCN(CC)CCn1c2ccccc2n2c(C(=O)c3ccc(-c4ccccc4)cc3)c(C)nc12		90%	6.2 µM	26%	40%	Active	inactive	Non-Toxic
CCN(CC)CCn1c2ccccc2n2c(C(=O)c3cc4ccccc4o3)c(C)nc12		90%	8.1 µM	36%	22%	Active	inactive	Non-Toxic
